Measured values taken from ChEMBL document CHEMBL1137096, “Optimization and metabolic stabilization of a class of nonsteroidal glucocorticoid modulators” (Bioorg Med Chem Lett, 2004).

Test: in vivo
Details: rat

## Cc1c(NS(C)(=O)=O)cccc1N(Cc1ccccc1)Cc1ccc(Oc2cccc(OCCCC(=O)NCCCC(=O)O)c2)cc1
  bioavailability: 12%
